Laboratory results from patent US6780871B2, “Methods and compositions for treating addiction disorders” (Albany Medical College, priority 2001, dated 2004).

Key:
α3β4 nACh receptors = target: T1, α3β4 nACh receptors (Rattus norvegicus, UniProt P09483+P12390); test: whole-cell patch-clamp of transfected HEK293 cells, neuronal nACh receptors, 300 μM ACh; assay type: cell-based
T1 construct: expressed in transfected cells; host or cells: HEK293 (ATCC CRL1573), transient transfection
Procedure: (§1) Human embryonic kidney 293 (HEK293) fibroblasts (ATCC CRL1573) were cultured in minimal essential medium supplemented with 10% fetal bovine serum and 2 mM glutamine (Life Technologies, Rockville, Md.). Cells were plated on poly-D-lysine-coated 35 mm nunc dishes, transfected by the LipofectaminePLUS method (Life Technologies), and examined functionally between 18-48 h post transfection. The following receptor subunit cDNAs were used: nAChR-α3 (nicotinic acetylcholine receptor-α3; accession no. L31621), nAChR-α4 (accession no. L31620), nAChR-β2 (accession no. L31622), nAChR-β4 (accession no. U42976), 5-HT3R-A (5-HT3A receptor; accession no. M74425), NR1 (N-methyl-D-aspartate receptor 1; accession no. X63255), NR2A (accession no. X91561), and NR2B (accession no. M91562). The nAchR and NR clones were rat; the 5-HT3R-A clone was mouse. Co-transfection of enhanced green fluorescent protein (“EGFP”) (10% of total cDNA) provided a marker to identify transfected cells. Transfected cells were selected for EGFP expression and examined by voltage-clamp recording in the whole-cell configuration using an Axopatch 200B patch-clamp amplifier (Axon Instruments, Foster City, Calif.). Thin-walled borosilicate glass microelectrodes (TW150F, World Precision Instruments, Sarasota, Fla.) had resistances of 3-5 MΩ when filled with an internal solution containing (in mM): 135 CsCl, 10 CsF, 10 HEPES (N-[2-hydroxyethyl]piperazine-N′-[2-ethanesulfonic acid]), 5 EGTA (ethylene glycol-bis[β-aminoethyl ether]-N,N,N′,N′-tetraacetic acid), 1 MgCl2, 0.5 CaCl2, pH 7.2. Whole-cell capacitance and series resistance were recorded and adequately compensated using the available circuitry of the amplifier. Current responses were filtered at 1 kHz with an 8-pole Bessel filter (Cygnus Technologies, Delaware Water Gap, Pa.), digitized at 3 kHz, and stored on a Macintosh PowerPC-G3 computer using an ITC-16 interface (Instrutech, Great Neck, N.Y.) under control of the data acquisition and analysis program Synapse (Synergy Research, Gaithersburg, Md.). Cells were continuously superfused with extracellular solution containing (in mM): 150 NaCl, 3 KCl, 5 HEPES, 1 MgCl2, 1.8 CaCl2, 10 glucose, and 0.1 mg/ml phenol red, pH 7.3 (MgCl2 was omitted from all solutions used for the study of NMDA receptors). […] Control, agonist, and drug solutions were applied to individual cells by rapid perfusion. Solutions were driven by a syringe pump through a flowpipe having 4 inputs that converge at a single common output of approximately 100 μm diameter. Rapid switching between inputs was achieved using a set of upstream solenoid valves (Lee Co., Westbrook, Conn.) under computer control; the solution exchange rate was ˜5 ms as measured from liquid junction currents.
(§2) Transfected HEK293 cells expressing various receptor subunit cDNAs were examined by whole-cell patch-clamp recording with fast perfusion of agonist and drug solutions. […] Transfected HEK293 cells expressing α3β4 nACh receptors were voltage-clamped to −70 mV and stimulated with 1 mM ACh at 30 s intervals. […] In FIG. 1A, open bars depict the timing of ACh application; filled bars depict the timing of co-application of 20 μM IBO or 20 μM 18MC; and inhibition was measured relative to control at the end of the drug application (indicated by arrows). […] The data presented in FIG. 1B are mean±SEM for 3-14 cells per point, and curve fits are given for the logistic equation: I=Imax/(1+([drug]/IC50)). […] In this case, transfected HEK293 cells expressing α3β4 nACh receptors were voltage-clamped to −70 mV and stimulated with 300 μM ACh at 30 s intervals.

nACh receptors = target: T2, nACh receptors (Rattus norvegicus, UniProt P09483+P12390); test: as above; assay type: cell-based; conditions: 300 μM ACh, estimated from 5 and 20 μM data; read-out: IC50 suggested by the inhibition data
T2 construct: expressed in transfected cells; host or cells: HEK293 (ATCC CRL1573), transient transfection
Procedure: as §1, §2

T1 sequence (P09483 31-630): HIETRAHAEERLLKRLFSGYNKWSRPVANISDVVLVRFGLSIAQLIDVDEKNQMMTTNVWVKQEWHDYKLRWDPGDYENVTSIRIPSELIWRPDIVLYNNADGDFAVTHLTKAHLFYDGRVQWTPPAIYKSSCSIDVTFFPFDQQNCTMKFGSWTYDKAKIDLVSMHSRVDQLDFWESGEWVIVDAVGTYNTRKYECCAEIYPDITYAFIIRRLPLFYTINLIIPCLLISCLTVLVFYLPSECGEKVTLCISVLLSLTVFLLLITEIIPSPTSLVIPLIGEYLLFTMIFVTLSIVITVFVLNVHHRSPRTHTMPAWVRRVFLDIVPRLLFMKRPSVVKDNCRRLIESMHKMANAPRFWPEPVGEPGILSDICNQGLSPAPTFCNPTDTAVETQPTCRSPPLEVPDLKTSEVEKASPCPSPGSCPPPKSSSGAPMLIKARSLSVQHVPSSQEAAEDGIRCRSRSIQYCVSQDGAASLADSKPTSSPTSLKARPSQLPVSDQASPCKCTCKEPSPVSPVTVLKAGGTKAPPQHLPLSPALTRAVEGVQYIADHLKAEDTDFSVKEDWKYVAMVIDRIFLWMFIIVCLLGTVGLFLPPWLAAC
T1 sequence (P12390 25-500): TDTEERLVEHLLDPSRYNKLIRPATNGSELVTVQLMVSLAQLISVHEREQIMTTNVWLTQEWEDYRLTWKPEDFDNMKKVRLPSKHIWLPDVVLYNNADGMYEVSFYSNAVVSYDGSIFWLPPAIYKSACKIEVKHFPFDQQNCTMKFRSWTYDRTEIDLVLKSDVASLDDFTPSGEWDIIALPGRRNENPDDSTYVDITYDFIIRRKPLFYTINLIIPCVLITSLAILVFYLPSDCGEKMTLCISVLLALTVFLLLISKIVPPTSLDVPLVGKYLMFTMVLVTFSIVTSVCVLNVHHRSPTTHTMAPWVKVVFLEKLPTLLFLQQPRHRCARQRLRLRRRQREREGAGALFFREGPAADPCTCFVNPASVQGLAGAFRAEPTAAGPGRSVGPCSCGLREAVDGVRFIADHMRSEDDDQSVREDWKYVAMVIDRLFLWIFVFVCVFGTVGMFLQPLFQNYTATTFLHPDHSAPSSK
T2 sequence (P09483 31-630): as the sequence (P09483 31-630) above
T2 sequence (P12390 25-500): as the sequence (P12390 25-500) above

COCC[C@H]1CC2CN3CCc4c([nH]c5ccccc45)[C@](C(=O)OC)(C2)[C@H]13 [18-methoxycoronaridine]
inhibition of ACh-evoked response (α3β4 nACh receptors; 5 μM drug with 300 μM ACh): no apparent inhibition | response to drug applied alone (agonist activity) (α3β4 nACh receptors; 20 μM drug alone, -70 mV): did not produce any response | inhibition of ACh-evoked response (α3β4 nACh receptors; 20 μM drug with 300 μM ACh, FIG. 2): 8 ±4% | IC50 (nACh receptors): > 20 µM
